Data from patent US20250084056A1, “SUBSTITUTED OXOISOINDOLINYL PIPERIDINE-2,6-DIONE COMPOUNDS” (BRISTOL-MYERS SQUIBB COMPANY, priority 2023, published 2025).

What was measured:
[1] = target: GSPT1 (Homo sapiens, UniProt P15170+Q96SW2); experiment: Degradation of GSPT1 (Western blot) in HCC1569 cells; format: cell-based; set-up: endogenous in cells; host or cells: HCC1569 (ATCC CRL-2330); conditions: HCC1569 cancer cells, 24 h, up to a concentration of 10 μM, FIG. 1C
Description: The assay measured the ability of the compound to degrade Cyclin E1, inhibit RB phosphorylation, and to determine the selectivity against degradation of GSPT1 in cancer cells in vitro. HCC1569 cells (ATCC #CRL-2330) were cultured in RPMI media (Gibco, catalog A104910) supplemented with 10% FBS (Gibco, catalog 10091148). Cells were plated in tissue culture-treated 6 well plates at a density of 0.5 million cells per well in 2 mL media. The cells were then incubated overnight in a cell culture incubator (5% CO2 and 37° C.) and allowed to attach to the plate. The following day cells were dosed with compounds at the desired concentrations. Compounds were first resuspended in DMSO to make 10 mM stock, and 20 μM stock was prepared by diluting 10 mM stock in culture media. […] Total protein concentration was measured using a BCA assay kit (Thermo Scientific, cat #P123227). […] Protein was then detected by incubating blots with 2 mL of HRP detection reagent (Thermo scientific cat #A38556) for one minute at room temperature. Excess reagent was drained and gently removed on a Kimwipe and the chemiluminescence signal was detected using Fluorchem imaging system. […] Relative quantification of western blots was performed using ImageJ software, data was then normalized to loading control (β-Actin) first and then to the DMSO-treated sample. […]

[2] = system: MKN1 gastric carcinoma xenograft model; experiment: In vivo xenograft tumor efficacy study, MKN1; set-up: species or system mice
[3] = system: HCC1569 breast carcinoma xenograft model; experiment: In vivo xenograft tumor efficacy study, HCC1569; set-up: species or system mice; conditions: HCC1569 xenografts, repeated dosing
Description: The anti-cancer efficacy of Example 35 was evaluated in xenograft models by measuring the reduction in tumor volume in animals treated with Example 35 compared to vehicle control animals. First, 5-10×10^6 tumor cells/animal in a 1:1 Matrigel® mix (0.2 mL total volume) were injected subcutaneously into female NSG mice (for NIHOVCAR3) and SCID mice (for HCC1569). Both strains of mice were purchased from Jackson Laboratory. Once tumors reached ˜150-200 mm^3, animals were randomized into groups of 8-10 animals/treatment arm for efficacy studies. Example 35 was administered via oral gavage (PO) at indicated doses and regimens (Table 7). Tumor growth and body weight were measured twice/week during the course of the study to evaluate efficacy and signs of toxicity.
Example 35 was formulated in 10% ethanol, 10% Vitamin E—TPGS, 30% propylene glycol, 50% PEG400 and administered by oral gavage (final volume 0.2 mL) at the doses indicated in Table 7. […]
The efficacy for each treated arm at different dose levels were calculated using the following formula: % ΔT/ΔC=[(TVT−TVT0)/(TVC−TVC0)]×100%. […] The percentage of tumor growth inhibition was calculated from the formula: % TGI=[100%−(% ΔT/ΔC)]. […]
Example 35 was evaluated for in vivo single-agent efficacy against the HCC1569 breast carcinoma xenograft model and NIHOVCAR3 ovarian adenocarcinoma xenograft model.

GSPT1, sequence (P15170 whole entry): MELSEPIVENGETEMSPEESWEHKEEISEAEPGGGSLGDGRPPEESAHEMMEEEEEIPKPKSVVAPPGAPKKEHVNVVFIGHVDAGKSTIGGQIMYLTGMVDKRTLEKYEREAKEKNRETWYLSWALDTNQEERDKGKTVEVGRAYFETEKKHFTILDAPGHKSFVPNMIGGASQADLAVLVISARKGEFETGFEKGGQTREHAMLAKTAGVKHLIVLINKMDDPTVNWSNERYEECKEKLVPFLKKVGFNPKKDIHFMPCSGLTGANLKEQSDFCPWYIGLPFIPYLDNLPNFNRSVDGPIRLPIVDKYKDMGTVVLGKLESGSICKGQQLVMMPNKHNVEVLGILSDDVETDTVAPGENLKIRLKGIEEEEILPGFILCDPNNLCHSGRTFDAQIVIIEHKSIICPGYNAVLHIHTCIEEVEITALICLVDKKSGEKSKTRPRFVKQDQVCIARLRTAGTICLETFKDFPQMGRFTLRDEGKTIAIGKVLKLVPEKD
GSPT1, sequence (Q96SW2 whole entry): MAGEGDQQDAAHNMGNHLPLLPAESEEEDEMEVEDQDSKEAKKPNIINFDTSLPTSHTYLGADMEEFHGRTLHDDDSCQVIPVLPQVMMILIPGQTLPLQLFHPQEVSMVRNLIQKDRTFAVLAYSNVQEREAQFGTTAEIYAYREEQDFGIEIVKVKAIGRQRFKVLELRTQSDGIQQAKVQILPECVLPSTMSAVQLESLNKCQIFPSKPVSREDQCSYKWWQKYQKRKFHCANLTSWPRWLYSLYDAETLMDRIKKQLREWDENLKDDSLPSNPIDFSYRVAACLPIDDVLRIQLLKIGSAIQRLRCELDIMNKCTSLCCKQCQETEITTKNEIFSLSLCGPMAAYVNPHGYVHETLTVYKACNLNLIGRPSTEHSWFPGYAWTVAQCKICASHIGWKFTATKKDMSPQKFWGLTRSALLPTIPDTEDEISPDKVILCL
GSPT1, sequence (Q16531 whole entry partner): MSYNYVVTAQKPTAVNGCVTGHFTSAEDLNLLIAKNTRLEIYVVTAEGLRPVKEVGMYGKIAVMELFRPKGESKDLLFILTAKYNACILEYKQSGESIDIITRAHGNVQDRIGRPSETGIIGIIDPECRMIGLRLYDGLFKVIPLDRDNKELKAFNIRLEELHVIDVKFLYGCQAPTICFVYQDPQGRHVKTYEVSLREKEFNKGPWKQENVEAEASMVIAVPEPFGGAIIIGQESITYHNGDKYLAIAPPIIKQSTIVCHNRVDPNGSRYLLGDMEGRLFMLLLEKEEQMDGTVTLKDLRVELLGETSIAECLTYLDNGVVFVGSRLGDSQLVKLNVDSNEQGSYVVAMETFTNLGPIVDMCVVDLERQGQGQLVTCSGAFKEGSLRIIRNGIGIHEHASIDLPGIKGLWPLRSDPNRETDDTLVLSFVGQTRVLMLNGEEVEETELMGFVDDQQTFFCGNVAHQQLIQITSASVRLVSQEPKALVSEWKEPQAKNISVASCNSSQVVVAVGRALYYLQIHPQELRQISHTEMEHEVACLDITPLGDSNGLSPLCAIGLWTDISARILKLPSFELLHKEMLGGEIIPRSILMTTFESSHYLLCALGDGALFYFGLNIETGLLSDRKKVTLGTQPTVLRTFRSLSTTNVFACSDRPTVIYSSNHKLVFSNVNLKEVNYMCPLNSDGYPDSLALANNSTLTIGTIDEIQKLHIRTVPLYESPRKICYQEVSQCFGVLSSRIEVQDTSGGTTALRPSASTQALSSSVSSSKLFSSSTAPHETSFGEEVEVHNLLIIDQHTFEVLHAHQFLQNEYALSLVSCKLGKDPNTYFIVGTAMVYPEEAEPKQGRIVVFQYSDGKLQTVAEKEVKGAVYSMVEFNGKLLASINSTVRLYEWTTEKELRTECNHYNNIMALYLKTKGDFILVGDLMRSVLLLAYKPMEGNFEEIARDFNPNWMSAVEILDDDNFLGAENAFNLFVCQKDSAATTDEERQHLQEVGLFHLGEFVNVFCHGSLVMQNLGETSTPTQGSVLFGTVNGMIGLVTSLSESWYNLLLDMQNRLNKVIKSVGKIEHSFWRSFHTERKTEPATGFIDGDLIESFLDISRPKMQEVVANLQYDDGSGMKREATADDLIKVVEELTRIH

SMILES: COc1c(COC(=O)Nc2ccc(Oc3ccc(F)c(F)c3)cc2)ccc2c1C(=O)N([C@H]1CCC(=O)NC1=O)C2 (single isomer, unassigned) [Example 35, {2-[(3 S)-2,6-dioxopiperidin-3-yl]-4-methoxy-3-oxo-2,3-dihydro-1H-isoindol-5-yl}methyl N-[4-(3,4-difluorophenoxy)phenyl]carbamate]
- degradation of GSPT1 protein [1]: did not significantly degrade GSPT1 protein
- tumor growth inhibition (TGI) ([2]; MKN1 gastric carcinoma xenograft, 30 mpk, QDx28 (as printed in text)): 95%
- Tumor efficacy, TGI (tumor growth inhibition) ([2]; MKN1 stomach, 10 mg/kg PO, QDx28): 95% TGI
- anti-tumor activity ([2]; MKN1 xenografts, repeated dosing): dose-dependent anti-tumor activity
- anti-tumor activity [3]: dose-dependent anti-tumor activity
